The results in this text go back to patent publication US20260250272A1, “N-SUBSTITUTED QUINOLINONE COMPOUND, PREPARATION METHOD THEREFOR AND USE THEREOF” (VIGONVITA LIFE SCIENCES CO., LTD., priority 2022, published 2026).

The nature of this data set: Oil solubility test in benzyl benzoate (HPLC). It is filed as physicochemical. As to conditions: organic solvent or mixture, thermodynamic from solid, 25° C., shaken 2 h. On the procedure:
The solubility test was performed by quantitative analysis using an external standard method of high-performance liquid chromatography.
Reference sample solution: 10 mg of reference sample was weighed, placed in a 20 mL volumetric flask, diluted to the scale with 80% acetonitrile, and shaken uniformly.
Test sample solution: an appropriate amount of sample was dissolved in benzyl benzoate to obtain a saturated solution. The mixture was placed in a shaker and shaken at 25° C. and 800 rpm for 2 h. The sample solution was filtered, and 100 μL of filtrate was added to a 10 mL volumetric flask, diluted to the scale with 80% acetonitrile, and shaken uniformly.
The solubility is the concentration that dissolves in the medium under given conditions. As for `CCCCCCCCCCCCCCC(=O)OCN1C(=O)CCc2ccc(CCN3CCN(c4cc(F)cc5sccc45)CC3)cc21` [Compound 66, (7-(2-(4-(6-Fluorobenzo[b]thiophen-4-yl)piperazin-1-yl)ethyl)-2-oxo-3,4-dihydroquinolin-1(2H)-yl) methyl pentadecanoate], the solubility at 2 h was > 200 mg/mL. The figure for `CCCCCC(C)C(=O)OCN1C(=O)CCc2ccc(CCN3CCN(c4cc(F)cc5sccc45)CC3)cc21` (stereo not shown) [Compound 110, (7-(2-(4-(6-Fluorobenzo[b]thiophen-4-yl)piperazin-1-yl)ethyl)-2-oxo-3,4-dihydroquinolin-1(2H)-yl) methyl 2-methylheptanoate] is > 200 mg/mL; for `CCCCCCCCCCC(=O)OCN1C(=O)CCc2ccc(CCN3CCN(c4cc(F)cc5sccc45)CC3)cc21` [Compound 63, (7-(2-(4-(6-Fluorobenzo[b]thiophen-4-yl)piperazin-1-yl)ethyl)-2-oxo-3,4-dihydroquinolin-1(2H)-yl) methyl undecanoate] it is > 200 mg/mL; for `CCCCCCCCCCOC(=O)OCN1C(=O)CCc2ccc(CCN3CCN(c4cc(F)cc5sccc45)CC3)cc21` [Compound 28, Decyl ((7-(2-(4-(6-fluorobenzo[b]thiophen-4-yl)piperazin-1-yl)ethyl)-2-oxo-3,4-dihydroquinolin-1(2H)-yl)methyl) carbonate] it is > 200 mg/mL.

For `C=CCCCCCCCCC(=O)OCN1C(=O)CCc2ccc(CCN3CCN(c4cc(F)cc5sccc45)CC3)cc21` [Compound 72, (7-(2-(4-(6-Fluorobenzo[b]thiophen-4-yl)piperazin-1-yl)ethyl)-2-oxo-3,4-dihydroquinolin-1(2H)-yl) methyl undec-10-enoate], the solubility at 2 h is > 200 mg/mL.

Turning to `CCCCCCCCCCCCCCCCOC(=O)OCN1C(=O)CCc2ccc(CCN3CCN(c4cc(F)cc5sccc45)CC3)cc21` [Compound 31, (7-(2-(4-(6-Fluorobenzo[b]thiophen-4-yl)piperazin-1-yl)ethyl)-2-oxo-3,4-dihydroquinolin-1(2H)-yl)methyl hexadecyl carbonate], the solubility at 2 h is > 200 mg/mL. Next, `CCCCCCCC(=O)OCN1C(=O)CCc2ccc(CCN3CCN(c4cc(F)cc5sccc45)CC3)cc21` [Compound 61, (7-(2-(4-(6-Fluorobenzo[b]thiophen-4-yl)piperazin-1-yl)ethyl)-2-oxo-3,4-dihydroquinolin-1(2H)-yl) methyl octanoate]: > 200 mg/mL. The figure for `CCCCCCCCCCCCC(=O)OCN1C(=O)CCc2ccc(CCN3CCN(c4cc(F)cc5sccc45)CC3)cc21` [Compound 64, (7-(2-(4-(6-Fluorobenzo[b]thiophen-4-yl)piperazin-1-yl)ethyl)-2-oxo-3,4-dihydroquinolin-1(2H)-yl) methyl tridecanoate] is > 200 mg/mL; for `CCCCCCCC/C=C\CCCCCCCC(=O)OCN1C(=O)CCc2ccc(CCN3CCN(c4cc(F)cc5sccc45)CC3)cc21` [Compound 73, (7-(2-(4-(6-Fluorobenzo[b]thiophen-4-yl)piperazin-1-yl)ethyl)-2-oxo-3,4-dihydroquinolin-1(2H)-yl) methyl oleate] it is > 200 mg/mL; for `CCCCCCCCCOC(=O)OCN1C(=O)CCc2ccc(CCN3CCN(c4cc(F)cc5sccc45)CC3)cc21` [Compound 27, (7-(2-(4-(6-Fluorobenzo[b]thiophen-4-yl)piperazin-1-yl)ethyl)-2-oxo-3,4-dihydroquinolin-1(2H)-yl) methyl nonyl carbonate] it is > 200 mg/mL.
